How the values were obtained:
Aβ40 [1] = molecular target: T1, Aβ40 (Homo sapiens, UniProt P05067); experiment: TEM imaging of DLS filtrates; type: biochemical; conditions: for Ranking TEM: scale 1 to 5 (1 = best, 5 = worst), qualitative
T1 construct: Lyophilized Aβ40 was monomerized following previous procedures; purchased GenScript
Experimental: Samples for TEM were prepared using the DLS filtrates following their analysis. An aliquot (20 µL) was added directly to a copper-coated formvar/carbon 300 mesh grid with a 63 µm pore size (Ted Pella). After settling for 1 min, the solvent was wicked away, then the grid was stained using 2% uranyl acetate (20 µL). After standing for one minute, the solvent was wicked away, and the grid was washed using dH2O (20 µL), which stayed on the grid for one minute before being wicked away. The grids were stored at room temperature until analysis. TEM images were collected using a high-resolution JEOL JEM 2100F operating at 200 kV.
The final evaluative step in the Aβ40 aggregation assay was imaging the samples using transmission electron microscopy (TEM). The samples used in the preparation of the TEM grids were those of the DLS filtrates, thereby allowing for a direct comparison between experimental methods, ultimately resulting in the same sample being measured by three different instruments. […] In order to determine the impact of each complex on Aβ40, multiple images were taken from each prepared grid (Figure S21), thereby providing an accurate representation of the particles.

[2] = molecular target: T2, human serum albumin (HSA) (Homo sapiens, UniProt P02768); experiment: Protein binding assay, dansyl glycine (DG) displacement, Sudlow site II; conditions: for Log K (DG), conditional binding constant to serum albumin: dansyl glycine probe, Sudlow site II, Stern–Volmer slope, HSA and DG 2.5 μM, PBS; for Ranking HSA: scale 1 to 5 (1 = best, 5 = worst), binding to HSA
T2 construct: purchased Sigma Aldrich
Experimental: (§1) A stock of human serum albumin (HSA, 100 μM) was prepared using PBS, while the probes dansyl glycine (DG) and warfarin (WF) were prepared by initially dissolving them in DMSO and diluting them with PBS until the concentration of DMSO was less than 5%. Solutions of each Ru complex were prepared by initial dissolution in DMSO and subsequent dilution using PBS until the concentration of DMSO was less than 5%. The total volume of each sample was 3.5 mL, where the concentration of HSA and DG/WF was 2.5 μM throughout the experiment. The Ru concentration ranged from 0 μM to 62.5 μM, with an increase of 12.5 μM for each sample. In total, six samples were prepared for each protein binding assay. After preparation, the samples were placed on an IKA Trayster inversion mixer (60 rpm) for 30 s and incubated at approximately 28 °C in a Neslab gp-200 for 15 min, before being placed back on the inversion mixer (60 rpm) for 30 s. All fluorescence measurements for the protein binding assay were made using a PTI QuantiMaster 50, and the samples were measured at room temperature with conditions respective to the probe.
(§2) One important consideration for a potential AD therapeutic is its interaction with serum proteins, specifically albumin (HSA). […] To determine the potential association of the prepared Ru complexes with HSA, a protein binding assay was performed. For these studies, the displacement of two fluorometric probes was used to determine the relative affinity of the Ru complexes for two of the established binding sites on HSA. The first probe, warfarin (WF), an anticoagulant, binds selectively to Sudlow site I on HSA [55], while the second probe used was dansyl glycine (DG), which selectively binds to Sudlow site II on HSA [56]. As these are the two major binding sites on the protein, the probes allow for observations of binding events that occur within these hydrophobic pockets. Individually, the probes were initially mixed with HSA, followed by increasing amounts of the respective Ru complexes, whereby the decrease in fluorescence signals from the respective probes (Figures S22–S30) was used to construct a Stern–Volmer plot, where the slope of the line represents the conditional binding constant (K’) for the respective Ru complexes to each site (Figure 8).

Aβ40 [3] = molecular target: T1, Aβ40; experiment: Thioflavin T (ThT) fluorescence assay of Aβ40 aggregation; type: biochemical; conditions: for Ranking ThT: scale 1 to 5 (1 = best, 5 = worst); for relative aggregation of Aβ40 (ThT fluorescence normalized to Aβ40 alone): equimolar 10 µM complex and Aβ40, 10 µM ThT, final 6 h time point, 37 °C
Experimental: All PBS used in the assay was filtered through a 0.20 μm Titan 3 syringe filter prior to use. The Ru stock solutions initially dissolved about 1.5 mg of each Ru complex in 100 µL DMSO and diluted it to 10 mL with PBS. Thioflavin T (ThT) was prepared in the same manner as the Ru complexes but was filtered prior to use in the assay. Lyophilized Aβ40 was monomerized following previous procedures and stored at −20 °C until use. When removed from the freezer, peptide samples were held on ice for 20 min prior to preparation for the assay. The Aβ40 was mixed with a 15 μL aliquot of DMSO and gently flicked to initiate dissolution. Next, 135 μL PBS was added, and the sample was sonicated until the solution was clear. The concentration of the Aβ40 stock solution was determined using an Implen NanoPhotometer N50 at λ = 280 nm with an extinction coefficient of 1490 M^−1 cm^−1 [27]. Samples were prepared in a 96-well plate by the sequential addition of PBS, Ru, ThT, and Aβ, where the final volume was 150 μL, and the analyte concentrations were 10 μM each. Thioflavin T (ThT) fluorescence was measured using the SpectraMax M3 plate reader with λex = 440 nm and λem = 480 nm. Measurements were taken every 30 min for a total of 6 h, with shaking occurring between each reading.
Each of the prepared Ru complexes was mixed with an equimolar amount of Aβ40 (10 µM), along with ThT (10 µM). Each sample was prepared in triplicate, loaded onto a microwell plate, and incubated at 37 °C with constant agitation to promote aggregation, with fluorescence measurements taken every 30 min for up to 6 h. The resultant fluorescence signals were normalized to the last time point for the samples of Aβ40 alone. After 4 h of incubation, a sharp increase in fluorescence for the peptide alone was observed, signifying that aggregation was occurring (Figure 5). […] Remarkably, the activity shown by RuBA is among the greatest we have measured thus far across a variety of Ru complexes. To confirm this activity, the samples from the ThT assay were subjected to additional analysis, as described below.
Figure 5 ThT fluorescence results following the incubation of equimolar solutions (10 μM) of Aβ40 with the Ru complexes for up to 6 h at 37 °C. The signals were normalized to the positive control of the free peptide in solution at the 6 h time point. The error bars represent the standard deviation observed for each data point for the respective samples.

[4] = molecular target: T2, human serum albumin (HSA); experiment: Protein binding assay, warfarin (WF) displacement, Sudlow site I; conditions: warfarin probe, Stern–Volmer slope, HSA and WF 2.5 μM, PBS
Experimental: as §1, §2

[5] = Aqueous stability by 1H NMR (DMSO-D6/D2O, 37 °C); type: physicochemical; conditions: for incubation time at which new 1H NMR signals (ligand exchange) reached maximum intensity: 25% DMSO-D6 in D2O; for ligand exchange in aqueous media (1H NMR): DMSO-D6/D2O, up to 24 h (RuBtB in 75% DMSO)
Experimental: A common step in the mechanism of action for most metal-based drugs is ligand exchange around the metal center. This promotes the coordination of the complex to the penultimate biological target, eliciting the desired response. […] Therefore, to evaluate the relative stability of the prepared complexes, ^1H NMR studies were performed. Following complete dissolution of the complexes in deuterated DMSO, dilution using D2O to a final DMSO concentration of 25% provided aqueous samples that were measured following prolonged incubation at 37 °C.
For the majority of the complexes, new signals emerged in close proximity to those of the parent complex, even without any incubation. […] A previously study monitoring ligand exchange for RuB in the presence of several proteins saw that neither the arene ring nor the 2,2-bipyridine ligands were lost, but rather the labile monodentate chloride ligand was replaced.

T1 sequence (P05067 672-711 limits assumed): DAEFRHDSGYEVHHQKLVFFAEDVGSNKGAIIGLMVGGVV
T2 sequence (P02768 25-609): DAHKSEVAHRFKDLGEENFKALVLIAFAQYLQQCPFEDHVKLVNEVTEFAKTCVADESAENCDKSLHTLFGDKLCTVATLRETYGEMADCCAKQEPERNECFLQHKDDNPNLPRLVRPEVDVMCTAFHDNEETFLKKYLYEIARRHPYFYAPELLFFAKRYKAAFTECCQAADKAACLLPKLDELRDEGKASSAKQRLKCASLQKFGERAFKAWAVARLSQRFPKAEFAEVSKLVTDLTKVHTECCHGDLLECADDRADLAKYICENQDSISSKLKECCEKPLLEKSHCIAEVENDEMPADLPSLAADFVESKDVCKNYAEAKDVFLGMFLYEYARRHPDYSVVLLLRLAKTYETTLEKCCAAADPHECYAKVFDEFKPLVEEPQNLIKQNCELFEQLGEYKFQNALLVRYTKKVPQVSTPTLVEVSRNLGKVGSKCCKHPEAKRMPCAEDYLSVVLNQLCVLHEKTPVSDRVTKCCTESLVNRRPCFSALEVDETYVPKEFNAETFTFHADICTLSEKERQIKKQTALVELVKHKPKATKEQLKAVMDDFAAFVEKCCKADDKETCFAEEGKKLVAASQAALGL

Row | Compound | Ranking TEM (Aβ40 [1]) | Log K (DG), conditional binding constant to serum albumin [2] | Ranking HSA [2] | Ranking ThT (Aβ40 [3]) | Log K (WF), conditional binding constant to serum albumin [4] | incubation time at which new 1H NMR signals (ligand exchange) reached maximum intensity [5] [h] | relative aggregation of Aβ40 (ThT fluorescence normalized to Aβ40 alone) (Aβ40 [3]) | ligand exchange in aqueous media (1H NMR) [5] | appearance of Aβ40 particles in TEM images (Aβ40 [1]; DLS filtrates after 6 h co-incubation)
1 | Cc1ccc(C(C)C)cc1.Cc1ccnc(-c2cc(C)ccn2)c1.F[P-](F)(F)(F)(F)F.[Cl-].[Ru+2] [RuBMe, [Ru(η^6-p-cymene)(4,4′-dimethyl-2,2′-bipyridine)Cl]PF6] | 3 | 3.99 | 4 | 5 | 4.56 | 1 |  |  | 
2 | [Ru(η^6-p-cymene)(4,4′-dimethoxy-2,2′-bipyridine)Cl]PF6 [RuBMeO] | 5 | 3.91 | 2 | 4 | 4.00 | 1 | 16.1% ± 6.9% |  | 
3 | [Ru(η^6-p-cymene)(4,4′-di-tert-butyl-2,2′-bipyridine)Cl]PF6 [RuBtB] | 4 | 3.85 | 1 | 3 |  |  | 14.3% ± 0.6% | no new signals emerged even after 24 h of incubation | 
4 | Cc1ccc(C(C)C)cc1.F[P-](F)(F)(F)(F)F.[Cl-].[Ru+2].c1ccc(-c2ccccn2)nc1 [RuB, [Ru(η^6-p-cymene)(2,2′-bipyridine)Cl]PF6] | 2 | 3.96 | 3 | 2 | 4.24 | 1 | 9.0% ± 2.3% |  | 
5 | [Ru(η^6-p-cymene)(4,4′-diamino-2,2′-bipyridine)Cl]PF6 [RuBA] | 1 | 4.07 | 5 | 1 | 4.38 |  |  | particularly rapid | most dispersed and least dense particles
